pIC50: −log10 of the molar value.
What was measured:
[1] = molecular target: T1, human KDR enzyme (Homo sapiens, UniProt P35968); experiment: KDR substrate phosphorylation assay (scintillation, 96-well plate); assay type: biochemical
T1 construct: The cytoplasmic domain of the human KDR enzyme was cloned in the form of a GST fusion; GST; made in house; host or cells: SF21 insect cells (baculovirus, pFastBac)
Experimental: The inhibitory effect of the compounds is determined in an assay of substrate phosphorylation by the KDR enzyme in vitro using a scintillation technique (96-well plate, NEN).
The cytoplasmic domain of the human KDR enzyme was cloned in the form of a GST fusion into the baculovirus expression vector pFastBac. The protein was expressed in SF21 cells and purified to approximately 60% homogeneity.
The KDR kinase activity is measured in 20 mM MOPS, 10 mM MgCl2, 10 mM MnCl2, 1 mM DTT, 2.5 mM EGTA, 10 mM β-glycerophosphate, pH=7.2, in the presence of 10 mM MgCl2, 100 μM Na3VO4, 1 mM NaF. 10 μl of the compound are added to 70 μl of kinase buffer, containing 100 ng of KDR enzyme at 4° C. The reaction is triggered by adding 20 μl of solution containing 2 μg of substrate (SH2-SH3 fragment of PLCγ expressed in the form of a GST fusion protein), 2 μCi γ^33P[ATP] and 2 μM cold ATP. After 1 hour of incubation at 37° C., the reaction is stopped by adding 1 volume (100 μl) of 200 mM EDTA. The incubation buffer is withdrawn and the wells are washed three times with 300 μl of PBS. The radioactivity is measured in each well using a Top Count NXT radioactivity counter (Packard).
The background noise is determined by measuring the radioactivity in four different wells containing the radioactive ATP and the substrate alone.
A control for total activity is measured in four different wells containing all of the reagents (γ^33P-[ATP], KDR and PLCγ substrate), but in the absence of compound.
The inhibition of KDR activity with the compound of the invention is expressed in percentage inhibition of the control activity determined in the absence of compound.
The compound SU5614 (Calbiochem) (1 μM) is included in each plate as an inhibition control.

[2] = molecular target: T2, Aurora2 (Homo sapiens, UniProt O14965); experiment: Aurora2 enzyme assay, NuMA substrate phosphorylation (Flashplate); assay type: biochemical; settings: read-out: IC 50 Aurora2
T2 construct: Aurora 2: whole recombinant protein comprising an N-terminal histidine tail; His tag (histidine tail) (N); made in house; host or cells: E. coli
T2 sequence (O14965 1-403): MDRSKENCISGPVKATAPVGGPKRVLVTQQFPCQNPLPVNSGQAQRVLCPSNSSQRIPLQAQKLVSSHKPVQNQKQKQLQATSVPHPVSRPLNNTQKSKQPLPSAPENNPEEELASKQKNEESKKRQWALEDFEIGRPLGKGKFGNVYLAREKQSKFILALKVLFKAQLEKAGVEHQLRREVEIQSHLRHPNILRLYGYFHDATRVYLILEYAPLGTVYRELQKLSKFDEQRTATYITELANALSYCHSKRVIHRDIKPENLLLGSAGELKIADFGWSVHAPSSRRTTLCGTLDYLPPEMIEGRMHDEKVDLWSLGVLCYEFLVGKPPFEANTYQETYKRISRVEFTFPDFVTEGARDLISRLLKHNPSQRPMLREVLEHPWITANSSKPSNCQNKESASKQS
Experimental: The inhibitory effect of compounds with respect to the kinases Aurora1 and Aurora2 is determined by an enzyme assay employing radioactivity detection.
The kinase activity of Aurora 1 and Aurora 2 is evaluated by the phosphorylation of the substrate Numa-histidine in the presence of radiolabeled ATP ([^33P]ATP), using 96-well Flashplate plates in which nickel chelate is fixed to the surface of the microplate. The amount of ^33P phosphate incorporated in the NuMA substrate is proportional to the activity of the enzyme Aurora1 or Aurora2.
The proteins are produced in the protein production laboratory of the SanofiAventis group.
Aurora 2: whole recombinant protein comprising an N-terminal histidine tail, expressed in E. coli and purified to more than 82%.
NuMA (nuclear protein that associates with the mitotic apparatus) fragment of 424 amino acids, expressed in E. coli, whose N-terminal end has been labeled with histidine and used as a substrate for the two Aurora enzymes.
The microplates used are 96-well Flash-Plate plates with nickel chelate (Perkin Elmer, model SMP107).
The products for evaluation are incubated in a reaction volume of 100 μL per well in the presence of 10 nM of Aurora 1 or Aurora 2, 500 nM of NuMA substrate in a buffer composed of 50 mM of Tris/HCl (pH 7.5), 50 mM NaCl, 5 mM MgCl2 (Aurora-B) or 10 mM MgCl2 (Aurora-A) and 1 mM of DTT, at 37° C.
In each well, 80 μL of the enzyme/substrate incubation buffer are distributed, followed by 10 μL of the product to be evaluated, in variable concentrations. The reaction is initiated by adding 1 μM of final ATP containing 0.2 μCi of [^33P]ATP (10 μL). After 30 minutes of incubation, the reaction is terminated by simply removing the reaction buffer and each well is washed twice with 300 μl of the Tris/HCl buffer. The radioactivity is then measured in each well by means of a scintillation apparatus, Packard, Top count model.
The control enzyme activity of Aurora is expressed by the number of counts per minute obtained within 30 minutes, after deduction of the background noise (reaction mixture not containing the enzyme). The evaluation of the various test products is expressed in percentage inhibition of the Aurora activity relative to the control.

[3] = molecular target: T3, human Tie2 (Homo sapiens, UniProt Q02763); experiment: Tie2 assay of PLC phosphorylation (FlashPlate); assay type: biochemical; settings: read-out: IC 50 TIE2
T3 construct: amino acids of the intracellular domain 776-1124; made in house
T3 sequence (Q02763 776-1124): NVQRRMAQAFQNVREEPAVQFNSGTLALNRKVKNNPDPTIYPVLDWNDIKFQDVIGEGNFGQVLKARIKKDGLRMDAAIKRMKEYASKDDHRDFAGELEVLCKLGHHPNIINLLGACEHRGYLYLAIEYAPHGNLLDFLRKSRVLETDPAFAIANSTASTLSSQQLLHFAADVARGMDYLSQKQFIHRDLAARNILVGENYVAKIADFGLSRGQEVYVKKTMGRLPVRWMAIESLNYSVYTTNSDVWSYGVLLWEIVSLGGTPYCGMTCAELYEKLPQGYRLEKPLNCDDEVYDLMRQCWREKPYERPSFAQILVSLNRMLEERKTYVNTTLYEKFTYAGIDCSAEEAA
Experimental: The coding sequence of human Tie2, corresponding to the amino acids of the intracellular domain 776-1124, was generated by PCR, using the cDNA isolated from human placenta as a model. This sequence was introduced into a baculovirus expression vector pFastBacGT in the form of a GST fusion protein.
The inhibitory effect of the molecules is determined in an assay of PLC phosphorylation by Tie2 in the presence of GST-Tie2 purified to approximately 80% homogeneity. The substrate is composed of the SH2-SH3 fragments of PLC expressed in the form of a GST fusion protein.
The kinase activity of Tie2 is measured in a 20 mM MOPS buffer, pH 7.2, containing 10 mM MgCl2, 10 mM MnCl2, 1 mM DTT, 10 mM of glycerol-phosphate. In a 96-well FlashPlate plate, kept on ice, a reaction mixture is deposited which is composed of 70 μl of kinase buffer containing 100 ng of GST-Tie2 enzyme per well. Subsequently 10 μl of the test molecule diluted to a concentration of 10% maximum in DMvSO are added. For a given concentration, each measurement is carried out in quadruplicate. The reaction is initiated by adding 20 μl of solution containing 2 μg of GST-PLC, 2 μM of cold ATP and 1 μCi of ^33P[ATP]. After 1 hour of incubation at 37° C., the reaction is terminated by adding 1 volume (100 μl) of 200 mM EDTA. Following removal of the incubation buffer, the wells are washed three times with 300 μl of PBS. The radioactivity is measured on a Wallac MicroBeta 1450.
The inhibition of Tie2 activity is calculated and expressed as a percentage inhibition relative to the control activity determined in the absence of compound.

T1 sequence (P35968 786-1356 limits assumed): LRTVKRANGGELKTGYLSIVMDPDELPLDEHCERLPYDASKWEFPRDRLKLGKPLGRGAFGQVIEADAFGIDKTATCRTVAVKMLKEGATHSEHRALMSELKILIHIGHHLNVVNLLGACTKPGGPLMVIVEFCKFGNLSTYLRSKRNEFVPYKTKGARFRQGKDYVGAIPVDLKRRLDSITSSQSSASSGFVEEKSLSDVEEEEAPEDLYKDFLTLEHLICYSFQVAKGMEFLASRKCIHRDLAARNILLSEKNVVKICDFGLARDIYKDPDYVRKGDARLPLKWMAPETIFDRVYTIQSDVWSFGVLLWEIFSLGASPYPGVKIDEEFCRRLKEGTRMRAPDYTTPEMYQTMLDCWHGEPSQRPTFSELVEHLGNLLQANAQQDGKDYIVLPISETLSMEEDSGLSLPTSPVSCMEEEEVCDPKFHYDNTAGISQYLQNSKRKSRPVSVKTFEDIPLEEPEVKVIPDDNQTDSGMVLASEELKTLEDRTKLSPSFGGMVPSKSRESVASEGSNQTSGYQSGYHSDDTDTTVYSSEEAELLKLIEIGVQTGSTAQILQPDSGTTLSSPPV

pIC50 [1] | pIC50 [2] | melting point [°C] | pIC50 [3] | SMILES
7.11 | 6.46 | 206 to 207 | 7.59 | O=C(Nc1ccc(-c2ccc3c(NC(=O)c4ccccc4)n[nH]c3c2F)cc1)Nc1cc(C(F)(F)F)ccc1F [Example 18, 1-(4-{7-Fluoro-3-[phenylcarbonylamino]-1H-indazol-6-yl}phenyl)-3-(2-fluoro-5-trifluoromethylphenyl)urea]
7.54 | 7.22 | 152 to 153 | 8.10 | O=C(Nc1ccc(-c2ccc3c(NC(=O)c4ccco4)n[nH]c3c2F)cc1)Nc1cc(C(F)(F)F)ccc1F [Example 17, 1-(4-{7-Fluoro-3-[(furan-2-yl)carbonylamino]-1H-indazol-6-yl}phenyl)-3-(2-fluoro-5-trifluoromethylphenyl)urea]

— patent US7517902B2, “Substituted indazoles, compositions containing the same, and the preparation and use thereof” (Aventis Pharma S.A., priority 2004, dated 2009)
